Results on seven compounds are retold here after ChEMBL document CHEMBL1201862, “PubChem BioAssay data set” (2004).

Calls of active or inactive are those of the source.

The nature of assay [1]: cells.
Assay [2] in a line: viability of uninfected HEp-2 cells – cell-based, HTS, cytotoxicity control for RSV inhibitor project, dose response (AID 2410). It counts as functional. To be noted: human respiratory syncytial virus.
The target in assay [3] is T1, Oxysterols receptor LXR-beta (Homo sapiens, UniProt P55055).
T1 sequence (P55055 whole entry): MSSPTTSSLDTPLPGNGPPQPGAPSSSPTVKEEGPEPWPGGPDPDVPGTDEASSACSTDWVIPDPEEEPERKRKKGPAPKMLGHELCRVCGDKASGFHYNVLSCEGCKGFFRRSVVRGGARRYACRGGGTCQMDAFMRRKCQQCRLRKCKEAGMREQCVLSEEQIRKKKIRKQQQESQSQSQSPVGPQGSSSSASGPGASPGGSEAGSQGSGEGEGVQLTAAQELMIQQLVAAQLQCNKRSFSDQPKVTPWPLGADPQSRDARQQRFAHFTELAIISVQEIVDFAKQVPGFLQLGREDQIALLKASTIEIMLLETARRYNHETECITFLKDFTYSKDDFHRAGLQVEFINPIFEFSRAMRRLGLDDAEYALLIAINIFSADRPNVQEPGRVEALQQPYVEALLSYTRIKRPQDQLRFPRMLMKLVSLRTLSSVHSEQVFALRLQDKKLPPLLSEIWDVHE
Type of assay: functional, cell-based.

Assay [4] in a line: Trypanosoma cruzi growth suppression in host cells – NIH3T3 host cells, beta-gal luminescence, confirmation (AID 2044).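 Note: intracellular parasites grown in NIH/3T3 mouse fibroblasts as host cells; luminescent beta-galactosidase reporter signal from transgenic T. cruzi replicating inside host cells; inhibitors lower the luminescence signal.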 Type of assay: functional, cell-based.
For a further assay, the target named is Caspase-6 (Homo sapiens, UniProt P55212). Description: inhibition of CASP6 peptide cleavage – biochemical, VEID-R110 fluorescence, cherry-pick, dose response (AID 720632).
Assay [5] in a line: cells. This is another data set of the same source.
A short description of assay [6]: NIH3T3 cell viability loss – ATP luminescence, mouse fibroblasts, counter-screen, dose response (AID 2010).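 Note: cells exposed to compound for about 90 hours before reading.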 Type of assay: functional, cell-based. On the technique in general: Counterscreens check selectivity or assay interference.
Assay [7] concerns the target Endoplasmic reticulum aminopeptidase 1 (Homo sapiens, UniProt Q9NZ08). Description: inhibition of human ERAP1 enzyme activity – biochemical, cherry-pick, set 2, plate reader, dose response (AID 743314).
The target in assay [8] is DNA dC->dU-editing enzyme APOBEC-3G (Homo sapiens, UniProt Q9HC16). Description: Dose Response confirmation of small molecule APOBEC3G DNA Deaminase Inhibitors via a fluorescence-based single-stranded DNA deaminase assay. [Related pubchem assays (depositor defined):AID493012, AID493028]. Type of assay: functional.
Assay [9] addresses DNA dC->dU-editing enzyme APOBEC-3A (Homo sapiens, UniProt P31941). Put plainly: A3A deaminase inhibition for selectivity – biochemical, dose response (AID 504722). Type of assay: functional.
A further assay addresses Paired box protein Pax-8 (Homo sapiens, UniProt Q06710). Description: PAX8 transcriptional activity inhibition in RMG-I – RMG-I cells, luciferase, cherry-pick, dose response (AID 687027).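 Note: luciferase reporter driven by Pax8 target thyroperoxidase promoter measured by SteadyGlo luminescence.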 Type of assay: functional, cell-based.
The nature of assay [10]: OVCAR-3 cell viability loss – plate reader, dry powder samples, PAX8 inhibitor project, dose response (AID 743044). It counts as functional, cell-based.
Assay [11] is described as follows: toxicity toward immortalized ovarian surface epithelium – cell-based, plate reader, dry powder samples, cytotoxicity control for PAX8 inhibitor project, dose response (AID 743045). It counts as functional.
Assay [12] is described as follows: Luminescence Cell-Based Dose Response HTS to Identify Activators of Luciferase Translation or Activity in H4 […] Cells. [Related pubchem assays: 1829 (Project Summary), 1814 (Primary HTS)]. Type of assay: functional.
For assay [13], the target named is T1, Oxysterols receptor LXR-beta. Type of assay: functional, cell-based. The source holds these as a separate data set.
Another assay deals with H4. Description: Luminescence Cell-Based Dose Response HTS to Identify Activators of 5'UTR Stem-Loop Driven Prion Protein mRNA Translation in H4 Neuroglioblastoma Cells. [Related pubchem assays: 1829 (Project Summary), 1814 (Primary HTS)]. Type of assay: functional. The note with it: Homo sapiens.
The nature of assay [14]: Luminescence Cell-Based Dose Confirmation HTS to Identify Activators of 5'UTR Stem-Loop Driven Alpha-Synuclein mRNA Translation in H4 Neuroglioblastoma Cells. [Related pubchem assays: 1829 (Project Summary), 1814 (Primary HTS)]. Type of assay: functional.
Assay [15] is described as follows: viability loss in HepG2 liver cells – cell-based, ATP luminescence, cherry-pick, set 6, cytotoxicity control, dose response (AID 1053125). It counts as functional.
Assay [16] has as its target Muscarinic acetylcholine receptor M5 (Homo sapiens, UniProt P08912). Put plainly: potentiation of ACh response at human M5 – cell-based, concentration-response curve, dose response (AID 651878). It counts as functional.
A short description of assay [17]: A2780 cell killing – plate reader, dry powder samples, cytotoxicity control, dose response (AID 743046). Type of assay: functional, cell-based.
A short description of assay [18]: OVCAR8 cell viability loss – plate reader, dry powder samples, PAX8 project, dose response (AID 743197). Type of assay: functional, cell-based. The note with it: OVCAR-8.
The nature of assay [19]: IGROV1 cell killing – plate reader, dry powder samples, PAX8 inhibitor project, dose response (AID 743043). It counts as functional, cell-based. To be noted: IGROV-1.

Paired box protein Pax-8, sequence (Q06710 whole entry): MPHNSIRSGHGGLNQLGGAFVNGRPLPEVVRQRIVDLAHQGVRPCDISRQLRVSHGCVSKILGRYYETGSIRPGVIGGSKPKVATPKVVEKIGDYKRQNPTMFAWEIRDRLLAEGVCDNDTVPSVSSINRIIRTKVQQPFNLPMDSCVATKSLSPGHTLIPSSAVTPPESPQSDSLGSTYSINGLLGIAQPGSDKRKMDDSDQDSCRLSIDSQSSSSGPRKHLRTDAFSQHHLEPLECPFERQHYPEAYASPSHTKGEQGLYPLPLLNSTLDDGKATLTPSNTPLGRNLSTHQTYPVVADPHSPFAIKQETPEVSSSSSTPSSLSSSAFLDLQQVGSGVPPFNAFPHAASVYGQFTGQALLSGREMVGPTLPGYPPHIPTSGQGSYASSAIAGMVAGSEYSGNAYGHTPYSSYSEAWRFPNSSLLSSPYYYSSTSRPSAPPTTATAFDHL
Caspase-6, sequence (P55212 24-179 limits assumed): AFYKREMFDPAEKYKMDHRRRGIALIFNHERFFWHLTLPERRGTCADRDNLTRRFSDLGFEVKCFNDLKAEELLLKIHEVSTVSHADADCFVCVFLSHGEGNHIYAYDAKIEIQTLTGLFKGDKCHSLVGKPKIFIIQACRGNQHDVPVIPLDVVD
Caspase-6, sequence (P55212 194-293 limits assumed): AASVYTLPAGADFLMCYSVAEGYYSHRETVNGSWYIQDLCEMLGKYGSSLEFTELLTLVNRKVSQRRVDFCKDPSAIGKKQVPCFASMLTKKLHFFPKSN
Endoplasmic reticulum aminopeptidase 1, sequence (Q9NZ08 whole entry): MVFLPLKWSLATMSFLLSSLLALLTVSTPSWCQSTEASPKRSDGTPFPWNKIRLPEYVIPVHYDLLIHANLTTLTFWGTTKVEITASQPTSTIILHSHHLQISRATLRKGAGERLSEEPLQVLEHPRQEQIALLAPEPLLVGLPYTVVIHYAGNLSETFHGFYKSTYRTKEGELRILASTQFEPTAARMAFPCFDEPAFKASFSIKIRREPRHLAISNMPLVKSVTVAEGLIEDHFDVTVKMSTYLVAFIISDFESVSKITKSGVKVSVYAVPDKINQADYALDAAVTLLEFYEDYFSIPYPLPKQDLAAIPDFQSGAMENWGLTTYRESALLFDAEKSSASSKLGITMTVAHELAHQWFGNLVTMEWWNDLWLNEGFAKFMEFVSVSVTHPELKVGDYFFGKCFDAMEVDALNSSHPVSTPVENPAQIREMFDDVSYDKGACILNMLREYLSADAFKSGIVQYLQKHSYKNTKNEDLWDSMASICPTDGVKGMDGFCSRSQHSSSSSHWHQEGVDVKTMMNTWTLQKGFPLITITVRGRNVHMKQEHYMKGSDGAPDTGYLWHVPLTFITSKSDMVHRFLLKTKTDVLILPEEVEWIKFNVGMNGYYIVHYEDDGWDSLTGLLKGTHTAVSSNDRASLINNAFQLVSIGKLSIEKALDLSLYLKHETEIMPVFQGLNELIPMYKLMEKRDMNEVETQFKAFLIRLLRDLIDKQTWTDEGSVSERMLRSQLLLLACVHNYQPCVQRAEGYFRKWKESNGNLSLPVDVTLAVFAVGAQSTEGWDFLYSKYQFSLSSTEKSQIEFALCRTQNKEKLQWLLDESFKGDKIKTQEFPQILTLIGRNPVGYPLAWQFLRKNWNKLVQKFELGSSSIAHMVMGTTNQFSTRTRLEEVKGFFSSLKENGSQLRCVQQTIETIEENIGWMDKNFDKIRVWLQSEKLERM
DNA dC->dU-editing enzyme APOBEC-3G, sequence (Q9HC16 whole entry): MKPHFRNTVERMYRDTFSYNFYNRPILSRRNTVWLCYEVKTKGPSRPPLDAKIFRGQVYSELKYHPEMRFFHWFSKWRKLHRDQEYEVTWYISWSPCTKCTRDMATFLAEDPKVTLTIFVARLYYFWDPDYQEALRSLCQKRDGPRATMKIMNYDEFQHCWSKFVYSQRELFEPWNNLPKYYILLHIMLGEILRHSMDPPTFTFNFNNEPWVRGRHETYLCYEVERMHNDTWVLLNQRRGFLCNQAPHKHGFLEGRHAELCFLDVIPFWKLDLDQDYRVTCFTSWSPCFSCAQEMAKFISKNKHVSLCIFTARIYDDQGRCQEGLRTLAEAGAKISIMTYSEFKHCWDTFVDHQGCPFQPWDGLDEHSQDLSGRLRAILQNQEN
DNA dC->dU-editing enzyme APOBEC-3A, sequence (P31941 whole entry): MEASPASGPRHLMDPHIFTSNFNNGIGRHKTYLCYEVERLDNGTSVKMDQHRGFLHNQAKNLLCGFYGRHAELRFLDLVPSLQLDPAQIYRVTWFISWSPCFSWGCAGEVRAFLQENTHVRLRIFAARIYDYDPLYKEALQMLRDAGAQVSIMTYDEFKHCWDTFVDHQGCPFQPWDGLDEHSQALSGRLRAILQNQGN
Muscarinic acetylcholine receptor M5, sequence (P08912 whole entry): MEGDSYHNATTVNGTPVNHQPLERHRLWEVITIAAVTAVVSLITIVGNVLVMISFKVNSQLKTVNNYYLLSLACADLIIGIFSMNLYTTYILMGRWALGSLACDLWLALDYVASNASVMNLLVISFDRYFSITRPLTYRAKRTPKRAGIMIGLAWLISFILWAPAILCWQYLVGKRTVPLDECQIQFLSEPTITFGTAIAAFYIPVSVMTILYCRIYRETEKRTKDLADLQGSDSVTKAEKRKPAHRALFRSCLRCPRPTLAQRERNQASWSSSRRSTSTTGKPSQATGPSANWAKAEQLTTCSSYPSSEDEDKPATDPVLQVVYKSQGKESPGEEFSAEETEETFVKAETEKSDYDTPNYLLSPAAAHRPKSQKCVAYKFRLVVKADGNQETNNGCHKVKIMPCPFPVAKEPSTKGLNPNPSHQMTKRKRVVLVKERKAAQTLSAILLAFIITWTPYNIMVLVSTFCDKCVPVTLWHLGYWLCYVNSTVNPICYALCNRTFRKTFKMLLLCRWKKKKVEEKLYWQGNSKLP

`COc1ccccc1Nc1nc(-c2cccs2)cs1`: the EC50 (in “cells [1]”; in assay [3]) was > 67.5 µM (inactive) in each case. Further, the CC50 (as a rule, the concentration at which the toxic effect on the cells reaches its halfway point) in [2] is 47.2 µM (active).

As for `Cn1ccs/c1=N\C(=O)c1ccc([N+](=O)[O-])o1`, the EC50 (commonly the concentration that produces a half-maximal response) in assay [4] is < 0.1 µM (active); in the assay “cells [5]” it was 0.03 µM (active); in assay [6], 24 µM (active). Further, the AC50 (usually the concentration at which the activity in the assay is half-maximal) on Caspase-6 was 6.3 µM (active).

Turning to `O=C(CSc1cnn[nH]1)Nc1cccc(C(=O)O)c1`, the AC50 in assay [7] is 8 µM (active). The IC50 (commonly the concentration at which inhibition is half-maximal) in assay [8] was 15.3 µM (active); in assay [9], > 100 µM (inactive).

As for `C[C@@H]1CCCCO[C@H](CN(C)Cc2ccccc2)[C@H](C)CN([C@@H](C)CO)C(=O)c2cc(NC(=O)Nc3ccc(C(F)(F)F)cc3)ccc2O1`, the AC50 on Paired box protein Pax-8 is 9.11 µM (active); in [10] it was 42.1 µM (active); in assay [11], 45.7 µM (active).

With `Cc1cc(-c2nc3cccnc3s2)ccc1NS(=O)(=O)c1cccs1`, the EC50 in assay [12] is 30.8 µM (active); in assay [13], > 67.5 µM (inactive); with H4, 0.197 µM (active); in assay [14], 9.73 µM (active). Moreover, in assay [15], the AC50 was 7.51 µM (active).

As for `Cc1ccc(OCCN2C(=O)C(=O)c3cc(OC(F)(F)F)ccc32)cc1`, in assay [16], the EC50 is 0.52 µM (active).

On to `C[C@@H]1CCCCO[C@H](CN(C)Cc2ccc(C(F)(F)F)cc2)[C@H](C)CN([C@H](C)CO)C(=O)c2cc(NS(=O)(=O)c3ccc(Cl)cc3)ccc2O1`, for which the AC50 in [17] was 39 µM (active); in assay [18], 15.9 µM (active); in assay [19], 34.6 µM (active); on Paired box protein Pax-8, 5.45 µM (active); in assay [10] it was 12.7 µM (active).
